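Five concentrations, 48 hours, 96-well plates. Here, GI50 denotes the concentration required for 50% inhibition of growth. TGI denotes the concentration required for complete inhibition of growth.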
Tested on: MDA-MB-468 breast
Experiment: NCI-60 cell line screen, 48 h

Compound | GI50 | TGI
O=[N+]([O-])c1ccc(-c2nc(N(CCO)CCO)c3ccccc3n2)o1 | 0.0553 µM | 0.195 µM
c1ccc2[nH]c(SSc3nc4ncncc4[nH]3)nc2c1 | 0.232 µM | > 76.5 µM
Fc1ccc(Oc2nccc(-c3c(-c4ccc(F)cc4)ncn3C3CCNCC3)n2)cc1 | 4.7 µM | > 24 µM
CC(=O)Nc1cccc(-n2cnc3cc(-c4ccc(O)cc4)ccc32)c1 | 0.259 µM | 0.65 µM
COc1c(C)c2c(c(O)c1C/C=C(\C)CCC(=O)OCCN1CCOCC1)C(=O)OC2 | 0.421 µM | > 100 µM
CCCCCCCCCNCCCCCCCCC | 1.77 µM | 3.22 µM
N=C1c2nc3n(c2C(=O)c2nc4n(c21)CCCC4)CCCC3 | 8.95 µM | 53.4 µM
O=C(N/N=C\c1ccc(F)cc1)c1ccc2nc(-c3ccc(Br)cc3)[nH]c2c1 | 1.98 µM | 3.99 µM
CC(=O)Nc1nc(SCc2ccccc2)c2ncn(C(C)=O)c2n1 | 24.8 µM | > 100 µM
CCC1=C[C@@H]2CN(C1)Cc1c([nH]c3ccccc13)[C@@](C(=O)OC)(c1cc3c(cc1OC)N(C=O)[C@H]1[C@@](O)(C(=O)OC)[C@H](OC(C)=O)[C@]4(CC)[C@@H]5C[C@@H]5CN5CC[C@]31[C@@H]54)C2 | < 0.000625 µM | > 6.25 µM
COc1ccccc1N1CCN(C2=NN=C(c3cccc(Cl)c3)c3ccccc3C2)CC1 | 0.382 µM | > 100 µM
COc1cc(Cl)cc(-c2nn(C(=O)NCCN3CCN(C)CC3)cc2-c2ccncc2)c1 | 10.5 µM | 49.9 µM
CC1(C)NCCC[C@]2(C)[C@H]3C=CC4=C5C[C@](C)(CO)CC[C@]5(C)CC[C@@]4(C)[C@]3(C)CC[C@@H]12 | 10.4 µM | 24 µM
CC([C@H]1CCC2C3CCC4C[C@@H](NC=O)CC[C@]4(C)C3CC[C@@]21C)N(C)C (stereo not given in full) | 1.42 µM | 3.73 µM
CCN1C(=O)N(CC)C2C1NN=c1s/c(=C3\C(=O)N(CC(C)C)c4ccccc43)c(=O)n12 (stereo not given) | 0.351 µM | 15.9 µM
Nc1nc(Nc2ccc3c(c2)CC[C@@H](N2CCCC2)CC3)nn1-c1cc2c(nn1)-c1ccccc1CCC2 | 1.75 µM | 3.39 µM
Nc1ccc(C(=O)c2ccc(N)c(Br)c2)cc1Br | 0.248 µM | 0.709 µM
CCN(CC)CCOc1ccc(Nc2ncc3cc(-c4ccc(O)cc4)c(=O)n(C)c3n2)cc1 | 3.9 µM | 24.2 µM
O=C(NC1CC1)c1ccc(-c2nc3ccc4[nH]ncc4c3c3c2CCCC3)cc1 | 1.5 µM | 7.14 µM
C=C1CC[C@@]2(C#N)[C@H]3[C@H](CC[C@@H]2C)[C@@H](C)C[C@@H](CC(C)(C)C#N)[C@H]13 | 2.79 µM | 25.9 µM
CCCc1ccc(S(=O)(=O)N[C@H]2CC[C@H]3[C@@H]4CCc5cc(O)ccc5[C@H]4CC[C@]23C)cc1 | 2.32 µM | 9.51 µM
Cc1ccccc1CN1CC2=C(CCN(Cc3ccccc3)C2=O)N2CCN=C12 | 0.773 µM | 6.83 µM
C/C=C(\C)C(=O)N[C@H]1[C@@H](OC(C)=O)C[C@]2(C)C3CC[C@@]4(C)C(CC[C@@H]4C(C)N(C)C)C3CCC2[C@H]1O (stereo not given in full) | 2.02 µM | 9.67 µM
O=C(Nc1ccc(-n2cc(-c3ccncc3)c(-c3ccc(O)c(Cl)c3)n2)cc1)c1cc(Cl)cc(Cl)c1 | 3.17 µM | > 32.5 µM
Cc1cc(C)c(O)c(CNCCCCCCNCc2cc(C)cc(C)c2O)c1 | 1.6 µM | 3.12 µM
c1ccc(C(=NNc2nc3ccccc3o2)c2ccccn2)nc1 | 0.0285 µM | 0.196 µM
COc1ccc(/C=C2\CN(C(=O)C(Cl)Cl)C/C(=C\c3ccc(OC)c(OC)c3)C2=O)cc1OC | 0.224 µM | 0.621 µM
COc1ccc2c(c1)nc(N)c1c3cc(OC)c(OC)cc3cn21 | 0.0339 µM | 12.5 µM
O=C(Nc1ccc(-n2cc(-c3ccncc3)c(-c3ccc(Cl)c(O)c3)n2)cc1)Nc1cc(C(F)(F)F)cc(C(F)(F)F)c1 | 1.79 µM | 5.04 µM
COc1cc(NC(=O)c2cc(OC)c3ccn(C)c3c2)cc2c1C[C@]1(C)CC[C@@H](O)C(C)(C)[C@H]1O2 | 6.61 µM | > 100 µM

Reference: PubChem BioAssay (NCI)
